Test results taken from patent US8445674B2, “Heterocyclyl compounds” (Hoffmann-La Roche Inc, priority 2009, dated 2013).

molecular target: T1, human chemokine receptor 2 isoform B (Homo sapiens, UniProt P41597); assay: Calcium mobilization assay (FLIPR, antagonist activity against MCP-1); format: cell-based; settings: Ca mobilisation assay, CHOK1-CCR2B-A5 cells, inhibition of calcium increase induced by 20 nM MCP-1
T1 construct: host or cells: CHOK1-CCR2B-A5 cells (CHO-K1)
T1 sequence (P41597 1-360 isoform P41597-2): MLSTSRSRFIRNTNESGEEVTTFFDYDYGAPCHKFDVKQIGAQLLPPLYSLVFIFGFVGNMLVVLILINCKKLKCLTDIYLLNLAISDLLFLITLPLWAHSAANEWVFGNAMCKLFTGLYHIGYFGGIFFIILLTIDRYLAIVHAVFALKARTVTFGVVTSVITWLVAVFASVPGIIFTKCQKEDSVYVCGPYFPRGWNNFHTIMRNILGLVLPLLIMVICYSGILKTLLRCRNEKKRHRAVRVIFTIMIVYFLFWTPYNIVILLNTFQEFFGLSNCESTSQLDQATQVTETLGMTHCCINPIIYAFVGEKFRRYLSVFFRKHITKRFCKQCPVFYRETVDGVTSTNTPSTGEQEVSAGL
Procedure, shortened: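 CHOK1 cells stably overexpressing human CCR2B, loaded with 4 μM Fluo-4 for 2 h at 30° C, compounds added and agonist signal read by FLIPR for 80 s. After 20-30 min at 30° C, 20 nM MCP-1 was added and fluorescence read again. IC50 is 50% inhibition of specific calcium increase (max minus basal).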

Compound	IC50 [nM]
C[C@H]1C(=O)N(CCC(F)C(=O)N2CCC3(CC3)[C@H](O)C2)CCN1C(=O)Nc1ccc(C(F)(F)F)c(Cl)c1 (single isomer, unassigned) [Example 137, (S)-4-[(R or S)-3-fluoro-4-((S)-4-hydroxy-6-aza-spiro[2.5]oct-6-yl)-4-oxo-butyl]-2-methyl-3-oxo-piperazine-1-carboxylic acid (3-chloro-4-trifluoromethyl-phenyl)-amide]	10.5
C[C@H]1C(=O)N([C@H](CO)CCC(=O)N2CCC3(CC3)[C@H](O)C2)CCN1C(=O)Nc1ccc(C(F)(F)F)c(C(F)(F)F)c1 [Example 144, (S)-4-[(S)-4-((S)-4-Hydroxy-6-aza-spiro[2.5]oct-6-yl)-1-hydroxymethyl-4-oxo-butyl]-2-methyl-3-oxo-piperazine-1-carboxylic acid (3,4-bis-trifluoromethyl-phenyl)-amide]	4.5
O=C1CCN(c2ccc(OC(F)(F)F)c(Cl)c2)CCN1CCCC(=O)N1CCC2(CC2)[C@H](O)C1 [Example 122, 1-(3-Chloro-4-trifluoromethoxy-phenyl)-4-[4-((S)-4-hydroxy-6-aza-spiro[2.5]oct-6-yl)-4-oxo-butyl]-[1,4]diazepan-5-one]	167
C[C@H]1C(=O)N(CCCC(=O)N2CCC3(CC3)[C@H](O)C2)CCN1C(=O)Nc1cccc(Cl)c1 [Example 26, (S)-4-[4-((S)-4-Hydroxy-6-aza-spiro[2.5]oct-6-yl)-4-oxo-butyl]-2-methyl-3-oxo-piperazine-1-carboxylic acid (3-chloro-phenyl)-amide]	18.1
C[C@H]1C(=O)N(CCCC(=O)N2CCC3(CC3)[C@H](O)C2)CCN1C(=O)Nc1ccc(C(F)(F)F)cc1 [Example 29, (S)-4-[4-((S)-4-Hydroxy-6-aza-spiro[2.5]oct-6-yl)-4-oxo-butyl]-2-methyl-3-oxo-piperazine-1-carboxylic acid (4-trifluoromethyl-phenyl)-amide]	20.6
C[C@H]1C(=O)N(CCC(F)C(=O)N2CCC3(CC3)[C@H](O)C2)CCN1C(=O)Nc1ccc(C(F)(F)F)c(Cl)c1 (single isomer, unassigned) [Example 138, (S)-4-[(S or R)-3-fluoro-4-((S)-4-hydroxy-6-aza-spiro[2.5]oct-6-yl)-4-oxo-butyl]-2-methyl-3-oxo-piperazine-1-carboxylic acid (3-chloro-4-trifluoromethyl-phenyl)-amide]	1.4
C[C@H]1C(=O)N(C[C@@H](O)CC(=O)N2CCC3(CC3)[C@H](O)C2)CCN1c1ccc(C(F)(F)F)c(Cl)c1 [Example 131, (S)-4-(3-Chloro-4-trifluoromethyl-phenyl)-1-[(S)-2-hydroxy-4-((S)-4-hydroxy-6-aza-spiro[2.5]oct-6-yl)-4-oxo-butyl]-3-methyl-piperazin-2-one]	13.1
C[C@H]1C(=O)N(CCCC(=O)N2CCC(C)(O)CC2)CCN1C(=O)Nc1cccc(Cl)c1 [Example 105, (S)-4-[4-(4-Hydroxy-4-methyl-piperidin-1-yl)-4-oxo-butyl]-2-methyl-3-oxo-piperazine-1-carboxylic acid (3-chloro-phenyl)-amide]	3410
C[C@H]1C(=O)N(C[C@H](O)CC(=O)N2CCC3(CC3)[C@H](O)C2)CCN1C(=O)Nc1ccc(C(F)(F)F)c(Cl)c1 [Example 43, (S)-4-[(R)-2-Hydroxy-4-((S)-4-hydroxy-6-aza-spiro[2.5]oct-6-yl)-4-oxo-butyl]-2-methyl-3-oxo-piperazine-1-carboxylic acid (3-chloro-4-trifluoromethyl-phenyl)-amide]	4
C[C@H]1C(=O)N(CCCC(=O)N2CCC3(CCCO3)CC2)CCN1C(=O)Nc1cccc(Cl)c1 [Example 108, (S)-2-Methyl-4-[4-(1-oxa-8-aza-spiro[4.5]dec-8-yl)-4-oxo-butyl]-3-oxo-piperazine-1-carboxylic acid (3-chloro-phenyl)-amide]	4070
C[C@@H]1C(=O)N(CCCC(=O)N2CCC3(CC3)[C@H](O)C2)[C@@H](C(N)=O)CN1C(=O)Nc1ccc(Cl)c(Cl)c1 [Example 151, (3R,6R)-4-[4-((S)-4-Hydroxy-6-aza-spiro[2.5]oct-6-yl)-4-oxo-butyl]-6-methyl-5-oxo-piperazine-1,3-dicarboxylic acid 3-amide 1-[(3,4-dichloro-phenyl)-amide]]	62.1
C[C@H]1C(=O)N(C[C@@H](O)CC(=O)N2CCC3(CC3)[C@H](O)C2)CCN1C(=O)Nc1ccc(C(F)(F)F)c(Cl)c1 [Example 42, (S)-4-[(S)-2-Hydroxy-4-((S)-4-hydroxy-6-aza-spiro[2.5]oct-6-yl)-4-oxo-butyl]-2-methyl-3-oxo-piperazine-1-carboxylic acid (3-chloro-4-trifluoromethyl-phenyl)-amide]	8.2
C[C@H]1C[C@H](O)CN(C(=O)CCCN2CCN(C(=O)Nc3cccc(Cl)c3)[C@@H](C)C2=O)C1 [Example 113, (S)-4-[4-((3S,5S)-3-Hydroxy-5-methyl-piperidin-1-yl)-4-oxo-butyl]-2-methyl-3-oxo-piperazine-1-carboxylic acid (3-chloro-phenyl)-amide]	1420
C[C@H]1C(=O)N(C[C@@H](O)CC(=O)N2CCC3(CC3)[C@H](O)C2)CCN1C(=O)Nc1ccc(OC(F)(F)F)c(Cl)c1 [Example 45, (S)-4-[(S)-2-hydroxy-4-((S)-4-hydroxy-6-aza-spiro[2.5]oct-6-yl)-4-oxo-butyl]-2-methyl-3-oxo-piperazine-1-carboxylic acid (3-chloro-4-trifluoromethoxy-phenyl)-amide]	2

The remaining lines, values ahead:

IC50 [nM]	Compound
20.2	O=C1CCN(C(=O)Nc2ccc(Cl)c(Cl)c2)CCN1CCCC(=O)N1CCC2(CC2)[C@H](O)C1 [Example 117, 4-[4-((S)-4-Hydroxy-6-aza-spiro[2.5]oct-6-yl)-4-oxo-butyl]-5-oxo-[1,4]diazepane-1-carboxylic acid (3,4-dichloro-phenyl)-amide]
1520	CC1CCN(C(=O)CCN2CCN(C(=O)/C=C/c3ccc(Cl)c(Cl)c3)CCC2=O)CC1 [Example 85, 1-[(E)-3-(3,4-Dichloro-phenyl)-acryloyl]-4-[3-(4-methyl-piperidin-1-yl)-3-oxo-propyl]-[1,4]diazepan-5-one]
1540	CC1(O)CCCN(C(=O)CCN2CCN(C(=O)/C=C/c3ccc(Cl)c(Cl)c3)CCC2=O)C1 (racemic) [Example 74, (rac)-1-[(E)-3-(3,4-Dichloro-phenyl)-acryloyl]-4-[3-(3-hydroxy-3-methyl-piperidin-1-yl)-3-oxo-propyl]-[1,4]diazepan-5-one]
563	CN(C)C(=O)C(CCO)N1CCN(C(=O)/C=C/c2ccc(Cl)c(Cl)c2)CCC1=O (racemic) [Example 3, (rac)-2-{4-[(E)-3-(3,4-Dichloro-phenyl)-acryloyl]-7-oxo-[1,4]diazepan-1-yl}-4-hydroxy-N,N-dimethyl-butyramide]
129	O=C(/C=C/c1ccc(Cl)c(Cl)c1)N1CCC(=O)N(CCC(=O)N2CCC(O)(c3cccnc3)CC2)CC1 [Example 77, 1-[(E)-3-(3,4-Dichloro-phenyl)-acryloyl]-4-[3-(4′-hydroxy-3′,4′,5′,6′-tetrohydro-2′H-[3,4′]bipyridinyl-1′-yl)-3-oxo-propyl]-[1,4]diazepan-5-one]
1820	O=C1CCCN(C(=O)CCN2CCN(C(=O)/C=C/c3ccc(Cl)c(Cl)c3)CCC2=O)C1 [Example 79, 1-[(E)-3-(3,4-Dichloro-phenyl)-acryloyl]-4-[3-oxo-3-(3-oxo-piperidin-1-yl)-propyl]-[1,4]diazepan-5-one]
1290	O=C1CCN(C(=O)Nc2cccc(Cl)c2)CCN1CCCC(=O)N1CCC2(CC2)[C@H](O)C1 [Example 116, 4-[4-((S)-4-Hydroxy-6-aza-spiro[2.5]oct-6-yl)-4-oxo-butyl]-5-oxo-[1,4]diazepane-1-carboxylic acid (3-chloro-phenyl)-amide]
1750	COC(=O)NC1CCN(C(=O)CCN2CCN(C(=O)/C=C/c3ccc(Cl)c(Cl)c3)CCC2=O)CC1 [Example 88, [1-(3-{4-[(E)-3-(3,4-Dichloro-phenyl)-acryloyl]-7-oxo-[1,4]diazepan-1-yl}-propionyl)-piperidin-4-yl]-carbamic acid methyl ester]
1290	C[C@H]1C[C@H](O)CN(C(=O)CCN2C[C@@H](C)N(C(=O)/C=C/c3cccc(Cl)c3)CCC2=O)C1 [Example 103, (R)-1-[(E)-3-(3-Chloro-phenyl)-acryloyl]-4-[3-((3S,5S)-3-hydroxy-5-methyl-piperidin-1-yl)-3-oxo-propyl]-2-methyl-[1,4]diazepan-5-one]
1040	C[C@H]1C(=O)N(CCC(=O)N2CCC(C)(O)CC2)CCN1C(=O)Nc1ccc(Cl)c(Cl)c1 [Example 18, (S)-4-[3-(4-Hydroxy-4-methyl-piperidin-1-yl)-3-oxo-propyl]-2-methyl-3-oxo-piperazine-1-carboxylic acid (3,4-dichloro-phenyl)-amide]
2480	C[C@@H]1CN(CCC(=O)N2CCCCC2)C(=O)CCN1C(=O)/C=C/c1cccc(Cl)c1 [Example 101, (R)-1-[(E)-3-(3-Chloro-phenyl)-acryloyl]-2-methyl-4-(3-oxo-3-piperidin-1-yl-propyl)-[1,4]diazepan-5-one]
3210	O=C(/C=C/c1ccc(Cl)c(Cl)c1)N1CCC(=O)N(CC(=O)N2CCC3(CCCC3)CC2)CC1 [Example 96, 4-[2-(8-Aza-spiro[4.5]dec-8-yl)-2-oxo-ethyl]-1-[(E)-3-(3,4-dichloro-phenyl)-acryloyl]-[1,4]diazepan-5-one]
